These results are taken from publication PMC12605013, “SAG1.3-derived Frizzled-targeting small-molecule compounds” (The Journal of Biological Chemistry, 2025).

One series addresses T1, Nluc-FZD6 (Homo sapiens, UniProt O60353).
T1 construct: expressed in transfected cells; host or cells: ΔSMO HEK293A or ΔFZD1–10 HEK293T cells (screen); ΔFZD1–10 HEK293T cells (concentration–response curves)
T1 sequence (O60353 19-706): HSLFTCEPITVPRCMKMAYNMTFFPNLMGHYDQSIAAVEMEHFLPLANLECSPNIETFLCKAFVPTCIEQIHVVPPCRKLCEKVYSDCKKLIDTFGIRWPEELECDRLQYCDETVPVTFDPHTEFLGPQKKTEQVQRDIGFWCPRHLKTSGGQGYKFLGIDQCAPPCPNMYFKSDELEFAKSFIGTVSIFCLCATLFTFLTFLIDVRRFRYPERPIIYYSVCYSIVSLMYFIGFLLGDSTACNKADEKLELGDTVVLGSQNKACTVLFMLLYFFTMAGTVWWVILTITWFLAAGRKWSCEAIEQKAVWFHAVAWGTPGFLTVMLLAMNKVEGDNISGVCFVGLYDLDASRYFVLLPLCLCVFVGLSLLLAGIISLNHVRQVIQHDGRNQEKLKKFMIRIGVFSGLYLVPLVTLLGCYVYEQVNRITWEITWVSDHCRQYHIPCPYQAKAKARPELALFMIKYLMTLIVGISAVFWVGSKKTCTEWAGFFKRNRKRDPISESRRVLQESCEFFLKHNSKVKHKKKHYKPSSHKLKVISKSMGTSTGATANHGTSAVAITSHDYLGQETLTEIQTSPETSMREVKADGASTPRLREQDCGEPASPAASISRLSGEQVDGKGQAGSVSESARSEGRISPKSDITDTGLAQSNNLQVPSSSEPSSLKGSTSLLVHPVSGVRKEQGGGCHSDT
Description: BRET-based BODIPY-cyclopamine competition binding at Nluc-FZD6 in live HEK293 cells. To be noted: for Displacement % / Displacement @ 10 µM compound (Nluc-FZD6) ΔBRET: 10 µM compound, BODIPY-cyclopamine 300 nM. The protocol:
After 24 h, cells were washed once with Hanks' balanced salt solution (HBSS), followed by the addition of 80 μl of HBSS. Next, 10 μl of the competitive ligand, that is, the tested SAG1.3 derivative (either in different concentrations for the concentration–response curves or at a final concentration of 10 μM for the first screens) and 10 μl of the fluorescent tracer BODIPY–cyclopamine (final concentration: 300 nM for the first screens, 200 nM for the concentration–response experiments) were added. All serial dilutions were prepared in HBSS. The cells were incubated for 90 min at 37 °C without additional CO2, after which 10 μl of luciferase substrate diluted in HBSS (furimazine; Promega, N1572, final dilution: 1:1000 for first screening) and coelenterazine h (Biosynth; final concentration: 5 μM for concentration–response experiments) were added to the cells. Following a 10 min incubation period in the dark, the measurement was started on a BMG Labtech ClarioStar or TECAN Spark multimode microplate reader, prewarmed to 37 °C. Nluc bioluminescence was detected between 460 and 490 nm (ClarioStar) or 460 and 500 nm (TECAN Spark). The emission of the fluorescent tracer was detected between 520 and 550 nm (ClarioStar) or between 520 and 560 nm (TECAN Spark).
For each binding experiment, the measurement was repeated five times and averaged for the analysis. ΔBRET values were obtained by subtracting the BRET ratio obtained in wells containing BODIPY–cyclopamine but no competitive ligand (100% value). The BRET values for full displacement were defined using “donor-only” control wells, which contained Nluc-FZDx-transfected cells but no BODIPY–cyclopamine.
For the full concentration–response BRET binding curves in Figure 2, BRET values were normalized (separately for each experiment) to control wells containing BODIPY–cyclopamine but no competitive ligand (100% value) and “donor-only” wells (0% value, described previously). […] Obtained IC50 values were transformed to pIC50 values, which were subsequently averaged between experiments. Displacement curves showing the non-normalized data (ΔBRET values generated as described previously) can be found in Fig. S2.
Shown are mean values and SDs from N independent experiments (N = 2-8) performed in duplicate.
Shown are mean values ± SEM from N independent experiments performed in triplicate.
Background: BRET reads energy transfer from a luciferase to a nearby fluorophore.

A further series deals with FZD6. More on the design: method as in PMID 31964872, PMID 34168128. To be noted: ref [18], [24]; cited from earlier work.
Details of series [1]: method as in PMID 31338636, PMID 32803633. Particulars: ref [14], [54]; cited from earlier work.
Where [2] appears, read: TECAN Spark reader (complete tracer displacement: net BRET = -0.03823).
The mark [3] stands for this setting: BODIPY-cyclopamine 200 nM, ΔFZD1-10 HEK293T cells.
Where [4] appears, read: BMG Labtech ClarioStar reader (complete tracer displacement: net BRET = -0.02736).

The molecule `Nc1ccc(C(=O)N[C@H]2CC[C@H](N(Cc3cccc(-c4ccncc4)c3)C(=O)c3sc4ccccc4c3Cl)CC2)nn1` [compound 23, 6-Amino-N-((1r,4r)-4-(3-chloro-N-(3-(pyridin-4-yl)benzyl)benzo[b]thiophene-2-carboxamido)cyclohexyl)pyridazine-3-carboxamide] showed a Displacement % on Nluc-FZD6 (TECAN Spark reader) of 85.8%. Also, on Nluc-FZD6 (setting [2]), the “Displacement @ 10 µM compound (Nluc-FZD6) ΔBRET” value was -0.0328. Also, the “pIC50 (Nluc-FZD6) mean ± SEM” value on Nluc-FZD6 (setting [3]) is listed as 5.54 ± 0.03.

Consider `O=C(CN1CCOCC1)Nc1cccc(C(=O)N[C@H]2CC[C@H](N(Cc3cccc(-c4ccncc4)c3)C(=O)c3sc4ccccc4c3Cl)CC2)c1` [compound 19, 3-Chloro-N-((1r,4r)-4-(3-(2-morpholinoacetamido)benzamido)cyclohexyl)-N-(3-(pyridin-4-yl)benzyl)benzo[b]thiophene-2-carboxamide], for which, on Nluc-FZD6 (TECAN Spark reader), the Displacement % came to 87.6%. Further, on Nluc-FZD6 (setting [2]), the “Displacement @ 10 µM compound (Nluc-FZD6) ΔBRET” value is on record as -0.0335. In addition, the “pIC50 (Nluc-FZD6) mean ± SEM” value at Nluc-FZD6 (setting [3]) was 5.71 ± 0.04.

Regarding `CCC(=O)Nc1cccc(C(=O)N[C@H]2CC[C@H](N(Cc3cccc(-c4ccncc4)c3)C(=O)c3sc4ccccc4c3Cl)CC2)c1` [compound 14, 3-Chloro-N-((1r,4r)-4-(3-propionamidobenzamido)cyclohexyl)-N-(3-(pyridin-4-yl)benzyl)benzo[b]thiophene-2-carboxamide], on Nluc-FZD6 (TECAN Spark reader), the Displacement % is reported as 75.9%. Also, the “Displacement @ 10 µM compound (Nluc-FZD6) ΔBRET” value on Nluc-FZD6 (setting [2]) is -0.0290. On Nluc-FZD6 (setting [3]), the “pIC50 (Nluc-FZD6) mean ± SEM” value is 5.57 ± 0.17.

Take `CN[C@H]1CC[C@H](N(Cc2cccc(-c3ccncc3)c2)C(=O)c2sc3ccccc3c2Cl)CC1.Cl.Cl` [SAG1.3, 3-chloro-N-[trans-4-(methylamino)cyclohexyl]-N-[[3-(4-pyridinyl)phenyl]methyl]-benzo[b]thiophene-2-carboxamide dihydrochloride]: the “Efficacy at FZD6” value with FZD6 is recorded as “very low efficacy”. Further, in the series on FZD6, the “Potency at FZD6” value is “double-digit micromolar potency”. For the same molecule, the results for the “Displacement @ 10 µM compound (Nluc-FZD6) ΔBRET” value at Nluc-FZD6 (setting [4]) and on Nluc-FZD6 (setting [2]) were -0.0099 and -0.0148, respectively. In addition, the figures for the Displacement % on Nluc-FZD6 (ClarioStar reader) and at Nluc-FZD6 (TECAN Spark reader) were 36.1% and 38.7%, respectively.

For `CC(C)C(=O)Nc1cccc(C(=O)N[C@H]2CC[C@H](N(Cc3cccc(-c4ccncc4)c3)C(=O)c3sc4ccccc4c3Cl)CC2)c1` [compound 15, 3-Chloro-N-((1r,4r)-4-(3-isobutyramidobenzamido)cyclohexyl)-N-(3-(pyridin-4-yl)benzyl)benzo[b]thiophene-2-carboxamide], the Displacement % at Nluc-FZD6 (TECAN Spark reader) came out at 70.1%. Also, the “Displacement @ 10 µM compound (Nluc-FZD6) ΔBRET” value at Nluc-FZD6 (setting [2]) was -0.0268. For the same molecule, the “pIC50 (Nluc-FZD6) mean ± SEM” value on Nluc-FZD6 (setting [3]) is on record as 5.13 ± 0.16.

`CN1CCN(CC(=O)Nc2cccc(C(=O)N[C@H]3CC[C@H](N(Cc4cccc(-c5ccncc5)c4)C(=O)c4sc5ccccc5c4Cl)CC3)c2)CC1` [compound 18, 3-Chloro-N-((1r,4r)-4-(3-(2-(4-methylpiperazin-1-yl)acetamido)benzamido)cyclohexyl)-N-(3-(pyridin-4-yl)benzyl)benzo[b]thiophene-2-carboxamide] yielded a Displacement % at Nluc-FZD6 (TECAN Spark reader) of 81.1%. Besides, the “Displacement @ 10 µM compound (Nluc-FZD6) ΔBRET” value on Nluc-FZD6 (setting [2]) is listed as -0.0310. Besides, at Nluc-FZD6 (setting [3]), the “pIC50 (Nluc-FZD6) mean ± SEM” value came out at 5.50 ± 0.04.

Regarding `O=C(N[C@H]1CC[C@H](N(Cc2cccc(-c3ccncc3)c2)C(=O)c2sc3ccccc3c2Cl)CC1)c1ccco1` [compound 10], the “Displacement @ 10 µM compound (Nluc-FZD6) ΔBRET” value on Nluc-FZD6 (setting [4]) is recorded as -0.0207. The same molecule showed a Displacement % at Nluc-FZD6 (ClarioStar reader) of 75.5%. Besides, the “pIC50 (Nluc-FZD6) mean ± SEM” value at Nluc-FZD6 (setting [3]) is given as 5.29 ± 0.02.

As for `O=C(N[C@H]1CC[C@H](N(Cc2cccc(-c3ccncc3)c2)C(=O)c2sc3ccccc3c2Cl)CC1)c1ccncc1Cl` [compound 21, 3-Chloro-N-((1r,4r)-4-(3-chloro-N-(3-(pyridin-4-yl)benzyl)benzo[b]thiophene-2-carboxamido)cyclohexyl)isonicotinamide], the Displacement % at Nluc-FZD6 (TECAN Spark reader) was 78.2%. In addition, at Nluc-FZD6 (setting [2]), the “Displacement @ 10 µM compound (Nluc-FZD6) ΔBRET” value is recorded as -0.0299. The “pIC50 (Nluc-FZD6) mean ± SEM” value at Nluc-FZD6 (setting [3]) came to 5.44 ± 0.05.

With `O=C(NC1CCC(N(Cc2ccc(-c3cccnc3)cc2)C(=O)c2sc3ccccc3c2Cl)CC1)c1ccco1` (stereo not shown) [compound 52, N-(4-(3-Chloro-N-(4-(pyridin-3-yl)benzyl)benzo[b]thiophene-2-carboxamido)cyclohexyl)furan-2-carboxamide], the “Displacement @ 10 µM compound (Nluc-FZD6) ΔBRET” value on Nluc-FZD6 (setting [4]) is given as -0.0194. The Displacement % at Nluc-FZD6 (ClarioStar reader) amounted to 70.9%. Also, the IC50 on Nluc-FZD6 (BODIPY-cyclopamine 200 nM, ΔFZD1-10 HEK293T cells, read-out: pIC50 (Nluc-FZD6) mean ± SEM (converted)) was 8.71 µM.

With `CN1CCC(C(=O)Nc2cccc(C(=O)N[C@H]3CC[C@H](N(Cc4cccc(-c5ccncc5)c4)C(=O)c4sc5ccccc5c4Cl)CC3)c2)CC1` [compound 17, N-(3-(((1r,4r)-4-(3-Chloro-N-(3-(pyridin-4-yl)benzyl)benzo[b]thiophene-2-carboxamido)cyclohexyl)-carbamoyl)phenyl)-1-methylpiperidine-4-carboxamide], the Displacement % at Nluc-FZD6 (TECAN Spark reader) is 73.6%. Moreover, on Nluc-FZD6 (setting [2]), the “Displacement @ 10 µM compound (Nluc-FZD6) ΔBRET” value is given as -0.0281. At Nluc-FZD6 (setting [3]), the “pIC50 (Nluc-FZD6) mean ± SEM” value is 5.49 ± 0.04.

B1: vantictumab: monoclonal antibody binding to five of 10 FZD paralogs (antibody, chains of the INN, looked up, V domains shown)
VH: EVQLVESGGGLVQPGGSLRLSCAASGFTFSHYTLSWVRQAPGKGLEWVSVISGDGSYTYYADSVKGRFTISSDNSKNTLYLQMNSLRAEDTAVYYCARNFIKYVFANWGQGTLVTVSS
VL: DIELTQPPSVSVAPGQTARISCSGDNIGSFYVHWYQQKPGQAPVLVIYDKSNRPSGIPERFSGSNSGNTATLTISGTQAEDEADYYCQSYANTLSLVFGGGTKLTVL
Consider B1, for which the “Reason for dismissal in phase Ib clinical trials” value in series [1] was “bone toxicity”.
